Converted amounts (≈) assume the structure as drawn. Read-outs that look alike come from different tables or passages of the source.
Legend:
topoisomerase □ = target: T1, topoisomerase □ (Homo sapiens, UniProt P11387); conditions: relative to CPT-11; cited from earlier work
T1 sequence (P11387 1-765): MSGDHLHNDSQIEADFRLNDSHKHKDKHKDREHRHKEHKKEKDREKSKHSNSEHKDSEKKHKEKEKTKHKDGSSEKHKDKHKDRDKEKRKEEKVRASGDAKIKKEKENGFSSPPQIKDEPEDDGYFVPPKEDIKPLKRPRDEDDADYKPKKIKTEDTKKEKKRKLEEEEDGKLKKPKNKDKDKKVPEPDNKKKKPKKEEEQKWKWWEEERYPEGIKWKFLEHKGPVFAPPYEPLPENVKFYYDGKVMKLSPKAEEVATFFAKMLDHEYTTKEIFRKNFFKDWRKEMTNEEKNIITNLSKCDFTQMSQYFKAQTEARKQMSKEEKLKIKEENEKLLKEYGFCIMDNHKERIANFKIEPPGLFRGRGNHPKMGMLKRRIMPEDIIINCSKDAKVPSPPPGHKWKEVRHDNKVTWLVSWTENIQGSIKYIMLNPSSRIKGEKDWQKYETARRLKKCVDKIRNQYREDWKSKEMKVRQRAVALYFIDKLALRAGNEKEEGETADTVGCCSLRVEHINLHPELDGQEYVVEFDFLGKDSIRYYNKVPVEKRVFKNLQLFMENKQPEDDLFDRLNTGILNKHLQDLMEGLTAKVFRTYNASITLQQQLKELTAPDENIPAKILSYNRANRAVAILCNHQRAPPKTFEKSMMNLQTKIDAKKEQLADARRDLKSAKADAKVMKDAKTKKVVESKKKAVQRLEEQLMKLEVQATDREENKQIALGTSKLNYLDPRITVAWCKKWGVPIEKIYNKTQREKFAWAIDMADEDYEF

acetylcholine = conditions: compared with CPT-11; cited from earlier work
[1] = assay type: physicochemical
[2] = Lyophilized SN-38 formulation reconstituted with water for injection, HPLC and pH; assay type: physicochemical
Protocol: Alternatively, a 10-hydroxycamptothecin compound and an amine compound are solubilized in non-aqueous polar solvent, and polymer surfactant is added thereto to prepare a solution. Next, a caking agent for lyophilization is added thereto to prepare a lyophilized formulation. As a specific example, 250 mg of copolymer (mPEG-PLA) of polyethyleneglycol (molecular weight: 2,000 daltons) and polylactic acid (molecular weight: 1,800 daltons) maybe added to a solution in which SN-38 and tromethamine are solubilized in anhydrous ethanol as above, to prepare a pure solution, and then 4 Ml of aqueous mannitol solution (100 mg/Ml) as a caking agent for lyophilization is added thereto, which is filtered with a filter having a pore size of 200 nm, and lyophilized. This lyophilized formulation is reconstituted with 4 Ml of water for injection, and then analyzed by HPLC to confirm that the concentration of SN-38 was 205 μg/Ml, 92% or more of SN-38 existed in the form of a lactone, and the pH of the aqueous solution was 8.4.
12 mg of tromethamine was dissolved in 1 ml of anhydrous ethanol, and 1 mg of SN-38 was added thereto and heated to 60[…] to prepare a pure solution of orange color. Subsequently, the block copolymer of methoxypolyethyleneglycol and polylactic acid, and 200 mg of mPEG-PLA (mPEG molecular weight: 2,000 daltons, PLA molecular weight: 1,800 daltons) were added thereto to prepare a pure solution. Then, 5 ml of aqueous mannitol solution (50 mg/ml) was added thereto, mixed, filtered with a filter having a pore size of 200 nm, and lyophilized to prepare a lyophilized formulation.
Injectable water of 4 Ml was added to the lyophilized vial to reconstitute the lyophilized formulation.

[3] = SN-38 content, lactone/carboxy anion ratio and pH after dilution of surfactant composition with aqueous solution; assay type: physicochemical; conditions: tromethamine/ethanol/cremophore EL solution, refrigerator 1 week, diluted with 0.9% saline to 5 Ml
physchem = conditions: organic solvent or mixture, thermodynamic from solid
[4] = cited from earlier work
[5] = anhydrous ethanol, 10 equivalents of triethanolamine
[6] = lyophilized with 250 mg mPEG-PLA, tromethamine, mannitol, reconstituted with 4 Ml water for injection

For CCc1c2c(nc3ccc(O)cc13)-c1cc3c(c(=O)n1C2)COC(=O)C3(O)CC (stereo not drawn) [SN-38, 7-ethyl-10-hydroxycamptothecin], the “Activity for inhibiting topoisomerase □, higher than that of CPT-11” value (topoisomerase □) is listed as “about 1,000 times”, the “Solubility of SN-38” value (anhydrous ethanol without adding an amine compound) is listed as “a few” and the “Solubility of SN-38” value [5] is listed as “about 1 mg/Ml”. For the same compound, the “Effect for inhibiting acetylcholine which causes diarrhea” value (acetylcholine) was “much lower than that of CPT-11”, the “SN-38 in the form of a lactone” value ([1]; 1 mg SN-38, 10 mg tromethamine, 1 Ml anhydrous ethanol, 500 mg cremophore EL, diluted with acetonitrile) was 100% and the Lacton content ([1]; SN-38 1 mg in 1 ml anhydrous ethanol, amine compound 10 equivalents) was 100%. For the same compound, the Lacton content ([1]; SN-38 1 mg in 1 ml organic solvent, tromethamine 10 equivalents) was 100%, the “Form of SN-38 by HPLC analysis” value [1, 5] was “no carboxy anion form was observed” and the “pH of the aqueous solution” value ([2]; Example 8: 12 mg tromethamine, 200 mg mPEG-PLA, mannitol, lyophilized, reconstituted with 4 Ml injectable water) was 8.4. The “Lactone form of SN-38” value ([2]; Example 8 lyophilized formulation reconstituted with 4 Ml injectable water) was 97%, the Drug content ([2]; Example 8 lyophilized formulation reconstituted with 4 Ml injectable water, HPLC) was 242 µg/mL and the “Concentration of SN-38” value [2, 6] was 205 µg/mL. For the same compound, the “SN-38 in the form of a lactone” value [2, 6] was no less than 92%, the “pH of the aqueous solution” value [2, 6] was 8.4 and the “Concentration of SN-38” value [3] was 220 µg/mL. For the same compound, the “SN-38 in the form of the lactone” value [3] was no less than 95%, the “pH of the solution diluted with saline” value [3] was 8.7 and the solubility at 12 h (physchem; Solubility of SN-38 in ethanol, ethanol, no amine) was 8 µg/mL (≈ 20.4 µM). For the same compound, the solubility at 12 h (physchem; Solubility of SN-38 in ethanol, in the presence of 5 or more equivalents of diethanolamine) was no less than 1000 µg/mL, the solubility at 12 h (physchem; Solubility, SN-38 1 mg in 1 ml anhydrous ethanol, amine compound 10 equivalents, room temperature 12 hours) was no less than 1000 µg/mL and the solubility at 12 h (physchem; Solubility, SN-38 1 mg in 1 ml organic solvent, tromethamine 10 equivalents, room temperature 12 hours) was no less than 1000 µg/mL. For the same compound, the “Solubility in water of the active lactone form” value ([4]; active lactone form) was “not more than 10 μg/ml”, the “Solubility of SN-38 in water” value [4] was “not more than 10 μg/ml” and the “Solubility in water of the carboxy anion form” value ([4]; inactive carboxy anion form) was no less than 4000 µg/mL.
